Source: patent US7820655B2, “Ethanol or 1,2-ethanediol cyclohexyl antibiotic derivatives” (Actelion Pharmaceuticals Ltd., priority 2006, dated 2010)
In brackets after ≈: the same amount, converted by molar mass.

Legend:
Type in all cases: cell-based
S. aureus A798 = assay: MIC by broth microdilution (NCCLS), S. aureus A798; settings: Staphylococcus aureus, cation-adjusted Mueller-Hinton Broth, pH 7.2-7.3
Protocol: (§1) These assays have been performed following the description given in “Methods for dilution Antimicrobial Susceptibility Tests for Bacteria that Grow Aerobically, 4th ed.; Approved standard: NCCLS Document M7-A4; National Committee for Clinical Laboratory Standards Villanova, Pa., USA, 1997”. Minimal inhibitory concentrations (MICs; mg/l) were determined in cation-adjusted Mueller-Hinton Broth (BBL) by a microdilution method following NCCLS guidelines (National Committee for Clinical Laboratory Standards. Methods for Dilution Antimicrobial Susceptibility). The pH of the test medium was 7.2-7.3.

S. Pneumoniae 49619 = assay: MIC by broth microdilution (NCCLS), S. Pneumoniae 49619; settings: Streptococcus pneumoniae, cation-adjusted Mueller-Hinton Broth, pH 7.2-7.3
Protocol: as §1

M. catarrhalis A894 = assay: MIC by broth microdilution (NCCLS), M. catarrhalis A894; settings: Moraxella catarrhalis, cation-adjusted Mueller-Hinton Broth, pH 7.2-7.3
Protocol: as §1

Structure (SMILES) | MIC (S. aureus A798) [µg/mL] | MIC (S. Pneumoniae 49619) [µg/mL] | MIC (M. catarrhalis A894) [µg/mL]
COc1ccc2nccc([C@@H](O)[C@H](O)[C@H]3CC[C@H](NCc4ccc5c(n4)NC(=O)CS5)CC3)c2n1 [Example 3, 6-(trans-{4-[(1R,2R)-1,2-dihydroxy-2-(6-methoxy-[1,5]naphthyridin-4-yl)-ethyl]-cyclohexylamino}-methyl)-4H-pyrido[3,2-b][1,4]thiazin-3-one] | ≤ 0.031 | 0.063 (≈ 0.127 µM) | ≤ 0.031
COc1cnc2cccc([C@@H](O)[C@H](O)[C@H]3CC[C@H](NC/C=C/c4cc(F)ccc4F)CC3)c2n1 [Example 10, (1R,2R)-1-{trans-4-[(E)-3-(2,5-difluoro-phenyl)-allylamino]-cyclohexyl}-2-(3-methoxy-quinoxalin-5-yl)-ethane-1,2-diol] | ≤ 0.031 | 0.063 (≈ 0.134 µM) | ≤ 0.031
COc1ccc2nccc(C[C@@H](O)[C@H]3CC[C@H](NCc4ccc5c(n4)NC(=O)CO5)CC3)c2n1 [Example 12, 6-(trans{4-[1-(1R)-hydroxy-2-(6-methoxy-[1,5]naphthyridin-4-yl)-ethyl]-cyclohexylamino}-methyl)-4H-pyrido[3,2-b][1,4]oxazin-3-one] | 0.063 (≈ 0.136 µM) | 0.125 (≈ 0.27 µM) | 0.031 (≈ 0.0669 µM)
